Like-named read-outs stand apart in the source and are kept apart here.
What was measured:
LogP (Table 1) = assay type: physicochemical
[1] = test system: Pratylenchus zeae (Corn Lesion Nematode); experiment: Pratylenchus zeae contact activity, preventive, coated corn seeds; assay type: in vivo; details: seed treatment 1 mg Al/seed, corn cv. LG4620, 1500 nematodes, 7 days after inoculation
Description: Coated corn cv. LG4620 seeds were sown 1 cm deep into 45 ml pots with soil (7:3 w/w—a mixture of 70% field soil and 30% quartz Sand). Two days after sowing the pots were infested with 1500 nematodes (all stages) of Pratylenchus zeae within a 2 ml suspension in two holes to the left and right of the seed hole. Assessment of phytotoxicity (in %) and nematode numbers within the root system occurred 7 days after inoculation. The upper plant part was cut off and the roots were washed free of soil debris. Nematodes within the roots were stained with acid fuchsin stain solution. Nematodes within the roots were quantified under a dissecting scope at 40×. Seed treatment rate: 1 mg Al/seed

M. incognita = experiment: Meloidogyne spp. contact activity, preventive, cucumber in pots treated with WP10 suspension; assay type: in vivo
Description: Cucumber cv. Toshka seeds were sown directly into pots filled with a sandy substrate. Six days later pots were each treated with 5 ml of a WP10 suspension of the test compound. Hereafter, pots were inoculated with 3000 eggs of M. incognita. The trial was harvested fourteen days after trial application and inoculation. Root galling was assessed according to Zeck's gall index (Zeck W. M. (1971) Ein Bonitierungsschema zur Feldauswertung von Wurzelgallenbefall. Pflanzenschutznachrichten Bayer 24, 1: 144-147). Phytotoxicity was measured as a reduction of growth of the emerged cucumber seedling in comparison to the control.

[2] = test system: Meloidogyne spp. (root-knot nematode); experiment: Meloidogyne spp. contact activity, preventive, cucumber seed in filter paper pouch; assay type: in vivo
Description: (§1) Filter papers (9 cm×4.5 cm) with a small pocket were placed into plastic pouches (12 cm×6 cm). One cucumber cv. Toshka seed was placed in the centre of the filter paper pocket of all the pouches needed for a test. […] Prior to application, the compound solution was prepared at twice the concentration required and the egg suspension is prepared with FORL nutrient solution with 3000 eggs/0.5 ml. After applying all the treatments, 3000 eggs (in 0.5 ml of FORL nutrient solution) were pipetted into the pouches. The pouches were incubated in a moist chamber for twelve days and watered regularly to maintain good filter paper moisture essential for the growing cucumber root system. After this period, the filter paper containing the germinated cucumber seedling was removed from the plastic pouch to assess the number of galls caused by Meloidogyne spp. per root system. Phytotoxicity was measured as a reduction of growth of the emerged cucumber seedling in comparison to the control.
as §1, with “system.” for “system. Phytotoxicity was measured as a reduction of growth of the emerged cucumber seedling in comparison to the control.”

[3] = 0.16 ppm, cucumber pot test, read-out: Mortality (%)
[4] = 0.8 ppm, cucumber pot test, read-out: Mortality (%)
[5] = 4 ppm, cucumber pot test, read-out: Mortality (%)
[6] = 20 ppm, cucumber pot test, read-out: Mortality (%)
[7] = 1.6 ppm, cucumber pouch test, read-out: Mortality (%)
[8] = 8 ppm, cucumber pouch test, read-out: Mortality (%)
[9] = 40 ppm, cucumber pouch test, read-out: Mortality (%)
[10] = 200 ppm, cucumber pouch test, read-out: Mortality (%)

In the case of `O=C(N[C@H]1CC[C@H]1c1ccc(F)cc1Cl)c1scnc1C(F)(F)F` [Example 5, N-[(1S,2S)-2-(2-chloro-4-fluoro-phenyl)cyclobutyl]-4-(trifluoromethyl)thiazole-5-carboxamide], the logP (LogP (Table 1)) is reported as 2.92 and the “reduction of nematode population compared to the untreated control” value [1] is reported as “greater than 80%”.

With `O=C(N[C@H]1CC[C@H]1c1ccc(F)cc1F)c1scnc1C(F)(F)F` [Example 6, N-[(1S,2S)-2-(2,4-difluorophenyl)cyclobutyl]-4-(trifluoromethyl)thiazole-5-carboxamide] the logP (LogP (Table 1)) was 2.71.

For `O=C(N[C@H]1CC[C@H]1c1ccc(Cl)cc1Cl)c1scnc1C(F)(F)F` [Example 7, N-[(1S,2S)-2-(2,4-dichlorophenyl)cyclobutyl]-4-(trifluoromethyl)thiazole-5-carboxamide], the mortality at 0.16 ppm (M. incognita; [3]) was 14%, the mortality at 0.8 ppm (M. incognita; [4]) was 14% and the mortality at 4 ppm (M. incognita; [5]) was 60%. For the same compound, the mortality at 20 ppm (M. incognita; [6]) was 99%, the logP (LogP (Table 1)) was 3.44 and the mortality at 1.6 ppm [2, 7] was 77%. For the same compound, the mortality at 8 ppm [2, 8] was 90%, the mortality at 40 ppm [2, 9] was 98% and the mortality at 200 ppm [2, 10] was 99%.

For `Cc1nc(C(F)(F)F)c(C(=O)N[C@H]2CC[C@H]2c2ccc(Cl)cc2Cl)s1` [C, reference compound], the mortality at 0.16 ppm (M. incognita) was 0%, the mortality at 0.8 ppm (M. incognita) was 0% and the mortality at 4 ppm (M. incognita) was 0%. It also gave a mortality at 20 ppm (M. incognita) of 0%, a mortality at 1.6 ppm [2] of 0% and a mortality at 8 ppm [2] of 0%. For the same compound, the mortality at 40 ppm [2] was 0% and the mortality at 200 ppm [2] was 0%.

Work on `O=C(N[C@H]1CC[C@H]1c1ccc(Cl)cc1Cl)c1scnc1C(F)F` [Example 9, N-[(1S,2S)-2-(2,4-dichlorophenyl)cyclobutyl]-4-(difluoromethyl)thiazole-5-carboxamide] yielded a mortality at 0.16 ppm (M. incognita; [3]) of 22%, a mortality at 0.8 ppm (M. incognita; [4]) of 61% and a mortality at 4 ppm (M. incognita; [5]) of 97%. For the same compound, the mortality at 20 ppm (M. incognita; [6]) was 98%, the logP (LogP (Table 1)) was 3.25 and the mortality at 1.6 ppm [2, 7] was 0%. The mortality at 8 ppm [2, 8] was 64%, the mortality at 40 ppm [2, 9] was 81% and the mortality at 200 ppm [2, 10] was 98%.

Work on `O=C(N[C@H]1CC[C@H]1c1ccc(F)cc1F)c1scnc1C(F)F` [Example 8, 4-(difluoromethyl)-N-[(1S,2S)-2-(2,4-difluorophenyl)cyclobutyl]thiazole-5-carboxamide] yielded a logP (LogP (Table 1)) of 2.4.

For `O=C(N[C@H]1CC[C@H]1c1ccc(Cl)cc1)c1scnc1C(F)(F)F` [Example 4, N-[(1S,2S)-2-(4-chlorophenyl)cyclobutyl]-4-(trifluoromethyl)thiazole-5-carboxamide], the logP (LogP (Table 1)) was 3.21 and the melting point was 103 to 108 °C.

Source: US20200087271A1, “N-CYCLOBUTYL-THIAZOL-5-CARBOXAMIDES WITH NEMATICIDAL ACTIVITY” (SYNGENTA PARTICIPATIONS AG, priority 2016, published 2020)
